Consider seven compounds from US10786522B2, “Compositions that include anthocyanidins and methods of use” (Maqui NewLife S.A., priority 2009, dated 2020).

Experiment [1] concerns Jurkat T cells. Description: Calcium entry (SOCE) in Jurkat T cells after addition of CaCl2. Type of experiment: cell-based. The procedure: To measure calcium entry after 200 seconds, when the levels of calcium returned to the baseline, 0.9 mM of CaCl2 was added, and the fluxes of Ca^2+ were measured as ratio of excitation ratio at 340 and 380 nm, and emission at 509 nm in a spectrofluorimeter during 150 seconds.
4×10^6 FURA 2-AM-loaded Jurkat T cells were incubated in HBSS calcium free medium. The cells were incubated in 50 uM delphinidin or 50 uM delphinidin plus 10 μM BTP-2 and the fluxes of Ca^2+ were measured as ratio of excitation at 340 and 380 nm, and emission at 509 nm, at 37° C. in a spectrofluorimeter (LS55, PerkinElmer).

For experiment [2], the system named is Human T cells. Nature of the experiment: INF-γ production in freshly isolated human T cells (ELISA). Format: cell-based. Conditions: 48 hrs. The protocol:
(§1) The effect of delphinidin on IL-2 and INF-γ production was also assayed on freshly isolated human T cells. Human T cells were isolated from blood of healthy volunteers using Lymphoprep reagent. T cells (1×10^6) in RMPI medium were incubated for 48 hrs at 37° C., in 5% CO2 in the presence of a vehicle control solution; 50 μM delphinidin; 50 μM delphinidin+1 μM BTP-2; 50 μM delphinidin+5 μM BTP-2; 50 μM delphinidin+10 μM BTP-2; 1 μM BTP-2; 5 μM. BTP-2; or 10 μM BTP-2. Then the supernatants were collected and analyzed using commercial ELISA kit (Becton Dickinson, USA) to measure IL-2 and INF-γ production according to the supplier's directions.
(In general: An ELISA detects its analyte on a solid surface through an enzyme-linked reagent.)

Experiment [3] deals with Human T cells. Nature of the experiment: IL-2 production in freshly isolated human T cells (ELISA). Format: cell-based. The protocol: as §1
We evaluated the effect of a combination of delphinidin and andandrographolide on IL-2 production in both freshly harvested human T cells and the Jurkat cell line. Andrographolide was prepared according to the method described in Example 4. Human T cells were isolated from blood of healthy volunteers using Lymphoprep reagent. T cells (1×10^6) in RMPI medium were incubated for 48 hrs at 37° C., in 5% CO2 in the presence of a vehicle control solution; 5 nM andrographolide; 50 μM delphinidin; or 5 nM andrographolide plus 50 μM delphinidin. Then the supernatants were collected and analyzed using commercial ELISA kit (Becton Dickinson, USA) to measure IL-2 production according to the supplier's directions.

The test system of the next experiment is Sprague Dawley rats. Description: Acute plantar inflammation model (carragenin) in rats. Format: in vivo, rat. Conditions: 1% carragenin, 6 hrs; anthocyanidins 35 mg/kg, diclofenac 2 mg/kg. The procedure: We assayed the effect of anthocyanidins on inflammation in vivo in an acute plantar inflammation model. Inflammation was induced in Sprague Dawley rats (200 g) using 1% carragenin (Sigma-Aldrich). The animals were treated with 35 mg/kg of anthocyanidins rich in […] (prepared according to the method descirbed in Example 1) or with diclofenac (2 mg/kg). The diameter of the treated legs was measured with a digital caliper over 6 hrs.

The test system of a further experiment is PPAR-γ. Nature of the experiment: PPAR-γ-Luc reporter assay in HL-60 cells. Type of experiment: cell-based, Human. The conditions noted are these: control substances, 12 h, concentration not given. The protocol: We examined the effect of delphindin-rich anthocyanidins on PPAR-γ activation. HL-60 cells in IMDM medium were transfected with the reporter vectors PPAR-γ-Luc (5 μg) (Panomics) and TK-RL (1 μg) (Promega) using Fugene 6 reagent (Roche), and cultured for 24 hr. Then, the cells were incubated for 12 h in 0.175, 1.75, or 17.5 μg/ml of delphindin-rich anthocyanidins, phorbol myristate acetate (PMA), 15-deoxi-d 12,14-prostaglandin J2 (PGj2), or tumor necrosis factor alpha (TNFα) as controls. Luciferase activity was measured using the Dual-Luciferase Reporter Assay kit (DLR) from Promega in a luminometer (Luminoskan).

Experiment [4] concerns Jurkat T cells. Nature of the experiment: Calcium release in Jurkat T cells in HBSS calcium free medium. Type of experiment: cell-based. Conditions: 50 or 100 uM U73122 for 10 minutes prior to 50 uM delphinidin. The protocol:
To measure calcium release, 4×10^6 FURA 2-AM-loaded Jurkat T cells were incubated in HBSS calcium free medium as decribed in Example 6. The cells were incubated in 50 uM delphinidin, or in 50 uM delphinidin and 10 μM N-[4-[3,5-bis(trifluoromethyl)-1H-pyrazol-1-yl]phenyl]-4-methyl-1,2,3-thiadiazole-5-carboxamide (BTP-2, a Store-Operated Calcium Entry (SOCE) inhibitor). The release of Ca^2+ was measured as ratio of excitation at 340 and 380 nm, and emission at 509 nm, for 200 seconds, at 37° C., in a spectrofluorimeter (LS55, PerkinElmer).
4×10^6 FURA 2-AM-loaded Jurkat T cells were incubated in HBSS calcium free medium. The cells were then incubated in 50 uM delphinidin and the fluxes of Ca^2+ were measured as ratio of excitation at 340 and 380 nm, and emission at 509 nm, at 37° C. in a spectrofluorimeter (LS55, PerkinElmer).
4×10^6 FURA 2-AM-loaded Jurkat T cells were incubated in HBSS calcium free medium. The cells were then treated with vehicle alone or 50 or 100 uM U73122 for 10 minutes prior to incubation in 50 uM delphinidin. Ca^2+ flux was measured as ratio of excitation at 340 and 380 nm, and emission at 509 nm, at 37° C. in a spectrofluorimeter (LS55, PerkinElmer).

Experiment [5] relates to Jurkat T cells. Nature of the experiment: IL-2 production in Jurkat T cells (ELISA). Format: cell-based. The procedure:
(§2) 2×10^6 Jurkat T cells in RPMI medium were incubated for 48 hrs at 37° C., in 5% CO2 in the presence of vehicle control solution; or the T cell activator, phorbol 12-myristate 13-acetate/lonomycin (PMA/Io 2 ng/ml 1 uM); 50 μM of delphinidin; 50 μM delphinidin+PMA/Io; 50 μM cyanidin; or 50 μM cyaniding+PMA/Io. Then the supernatants were collected and IL-2 production was analyzed by ELISA using a commercial kit (Becton Dickinson, USA) according to the supplier's directions.
Then the supernatants were collected and analyzed using commercial ELISA kit (Becton Dickinson, USA) to measure IL-2 production according to the supplier's directions.
Jurkat T cells were incubated in either a vehicle control solution; 5 nM andrographolide; 50 μM delphinidin; or 5 nM andrographolide plus 50 μM delphinidin.

The test system of experiment [6] is Jurkat T cells. Description: INF-γ production in Jurkat T cells (ELISA). Format: cell-based. Conditions: 48 hrs. The procedure: as §2, with “We also explored the effect of delphinidin and cyanidin on Interferon-gamma (INF-γ) production in Jurkat T cells. 2×10^6” for “2×10^6”, “CO2. The samples were incubated” for “CO2”, “13-acetate/Ionomycin” for “13-acetate/lonomycin”, “IFN-γ” for “IL-2”

Where [7] appears, read: 1 μM BTP-2, alone or with 50 μM delphinidin.
The mark [8] stands for this setting: 5 μM BTP-2, alone or with 50 μM delphinidin.
[9] abbreviates: 10 μM BTP-2, alone or with 50 μM delphinidin.
The mark [10] stands for this setting: Table 10, 48 hrs, andrographolide 5 nM, delphinidin 50 μM.
[11] abbreviates: Table 11, andrographolide 5 nM, delphinidin 50 μM.
Where [12] appears, read: delphinidin 50 μM, cyanidin 50 μM, PMA/Io 2 ng/ml 1 uM.
[13] abbreviates: Table 5, 48 hrs, delphinidin 50 μM, cyanidin 50 μM, PMA/Io 2 ng/ml 1 uM.

Marks after values point to notes of the source that are not given here.

Turning to `Cc1nnsc1C(=O)Nc1ccc(-n2nc(C(F)(F)F)cc2C(F)(F)F)cc1` [BTP-2, N-[4-[3,5-bis(trifluoromethyl)-1H-pyrazol-1-yl]phenyl]-4-methyl-1,2,3-thiadiazole-5-carboxamide], the “delphinidin-induced calcium influx in the presence of inhibitor (FIG. 2A, 2B)” value with Jurkat T cells [1] (delphinidin 50 μM plus BTP-2 10 μM) was “reduced”. The “effect on calcium entry and release, result in words” value with Jurkat T cells [1] (delphinidin 50 μM, BTP-2 10 μM) is “inhibited the entry, but not the release”. The “Average INF-γ production” value with Human T cells [2] (setting [7]) was found to be 240 pg/mL; in the experiment with Human T cells [2] (setting [8]), 390 pg/mL; in the experiment on Human T cells [2] (setting [9]) it was 140 pg/mL. Besides, the figures for the “Percentage vs. control (INF-γ)” value in the experiment on Human T cells [2] (setting [7]), in the experiment on Human T cells [2] (setting [8]) and with Human T cells [2] (setting [9]) were 64.9%, 105.4% and 37.8%, respectively. For the same compound, the “Average IL-2 production” value was 0 pg/mL with Human T cells [3] (Table 7, 48 hrs, 1 μM BTP-2, alone or with 50 μM delphinidin); 0 pg/mL in the experiment with Human T cells [3] (Table 7, 48 hrs, 5 μM BTP-2, alone or with 50 μM delphinidin); 0 pg/mL in the experiment with Human T cells [3] (Table 7, 48 hrs, 10 μM BTP-2, alone or with 50 μM delphinidin).
For the compound `O=C(O)Cc1ccccc1Nc1c(Cl)cccc1Cl` [Diclofenac, diclofenac], in the experiment on Sprague Dawley rats, the “Average ABC0-6 (area under the curve of the diameter of the treated legs)” value is listed as 12.5** mm*hr and the “Decrease percentage compared to control (ABC0-6)” value is on record as 37.5%.
With `CCCCC/C=C/C=C1/C(=O)C=C[C@@H]1C/C=C\CCCC(=O)O` [PGj2, 15-deoxi-d 12,14-prostaglandin J2], in the experiment with PPAR-γ, the “Average percentage activity of control [PPAR-γ-Luc/TK-RL] ± SD” value is given as 256.8 ± 126.9%.
For the compound `COc1ccc2c(c1)CC[C@@H]1[C@@H]2CC[C@]2(C)[C@@H](NCCCCCCN3C(=O)C=CC3=O)CC[C@@H]12` [U73122, reference compound], the “delphinidin induced calcium flux after pretreatment (FIG. 3)” value in the experiment on Jurkat T cells [4] is “dose-dependent reduction”.
As for `C=C1CC[C@@H]2[C@](C)(CO)[C@H](O)CC[C@@]2(C)[C@@H]1C/C=C1/C(=O)OC[C@H]1O` [andrographolide], the “Average IL-2 production” value in the experiment with Human T cells [3] (setting [10]) was found to be 85 pg/mL; in the experiment on Jurkat T cells [5] (setting [11]) it was 0.0140 Abs 450 nm. The “Percentage compared to the control (IL-2)” value was 212.5% in the experiment on Human T cells [3] (setting [10]) and 84.8% with Jurkat T cells [5] (setting [11]). The “IL-2 levels higher (Table 10)” value with Human T cells [3] (andrographolide 5 nM, delphinidin 50 μM) was 112%.
Regarding `Oc1cc(O)c2cc(O)c(-c3ccc(O)c(O)c3)[o+]c2c1` [cyanidin, Cyanidin], the “INF-γ levels relative to control cells, result in words” value in the experiment with Jurkat T cells [6] (50 μM) is reported as “about the same levels”. Further, in the experiment on Jurkat T cells [6] (setting [12]), the “Average INF-γ production” value was found to be 8 pg/mL and the “Percentage vs. control (INF-γ)” value was found to be 100%. For the same compound, in the experiment on Jurkat T cells [5] (50 μM, 48 hrs), the “IL-2 lower than control cells” value was 10%. For the same compound, in the experiment with Jurkat T cells [5] (setting [13]), the “Average IL-2 production” value was 45 pg/mL and the “Percentage vs. control (IL-2)” value is listed as 90%.
tumor necrosis factor alpha [TNFα]: the “Average percentage activity of control [PPAR-γ-Luc/TK-RL] ± SD” value in the experiment with PPAR-γ amounted to 283.4 ± 47.23%.
